In paper PMC7767506, “Synthesis and Characterization of Store-Operated Calcium Entry Inhibitors Active in the Submicromolar Range” (International Journal of Molecular Sciences, 2020):
Entries after “also recorded” stand apart in the source; their conditions may differ.

Biological target: T1, IP3R1 (Mus musculus, UniProt P11881)
T1 construct: expressed in transfected cells; host or cells: L15 fibroblast cell line (gift of Katsuhiko Mikoshiba), saponin-permeabilized
Assay: IP3-induced Ca2+ release (IICR) in permeabilized L15 fibroblasts overexpressing IP3R1
Format: cell-based
Protocol: Measurements of SERCA-mediated ^45Ca^2+ store loading and IP3-dependent release from the ER Ca^2+ store were performed on permeabilized cells in unidirectional conditions. As this approach required the use of cells forming strongly adherent monolayers, we used L15 fibroblasts stably overexpressing IP3R1, similarly to our previous work.
The L15 fibroblasts stably overexpressing IP3R1 were seeded in gelatin-coated 12-well plates (Greiner, Frickenhausen, Germany) at a density of 60,000 cells per well. Unidirectional ^45Ca^2+ flux experiments on confluent cell monolayers were performed at 30 °C after membrane permeabilization with saponin (40 µg/mL), exactly as previously described. After permeabilization, the non-mitochondrial Ca^2+ stores were loaded for 45 min in 120 mM KCl, 30 mM imidazole–HCl (pH 6.8), 5 mM MgCl2, 5 mM ATP, 0.44 mM EGTA, 10 mM NaN3, and 150 nM free ^45Ca^2+ (28 µCi mL^−1). Subsequently, efflux was initiated by incubation in efflux medium (120 mM KCl, 1 mM EGTA, 10 µM TG and 30 mM imidazole–HCl pH 6.8). The latter medium was replaced every two minutes for 18 minutes. The exact amount of Ca^2+ at each time point is calculated by summing in retrograde order the amount of radioactivity remaining in the cells at the end of the efflux and the radioactivity collected during the successive time intervals. This allows to calculate the steady-state content of the ER Ca^2+ stores (indicative for the SERCA activity, after subtraction of the loading achieved in the presence of 2 µM TG) the basal leak rate of Ca^2+ out of the stores and the IP3-induced Ca^2+ release after addition of IP3 (0.7 µM). These various parameters were measured both in control conditions or in the presence of various 2-APB analogs as indicated. To assess the effect of the 2-APB analogs on the SERCA-mediated loading of the ER Ca^2+ stores, the analogs were added during the ^45Ca^2+-loading phase as described previously. […]

T1 sequence (P11881 whole entry): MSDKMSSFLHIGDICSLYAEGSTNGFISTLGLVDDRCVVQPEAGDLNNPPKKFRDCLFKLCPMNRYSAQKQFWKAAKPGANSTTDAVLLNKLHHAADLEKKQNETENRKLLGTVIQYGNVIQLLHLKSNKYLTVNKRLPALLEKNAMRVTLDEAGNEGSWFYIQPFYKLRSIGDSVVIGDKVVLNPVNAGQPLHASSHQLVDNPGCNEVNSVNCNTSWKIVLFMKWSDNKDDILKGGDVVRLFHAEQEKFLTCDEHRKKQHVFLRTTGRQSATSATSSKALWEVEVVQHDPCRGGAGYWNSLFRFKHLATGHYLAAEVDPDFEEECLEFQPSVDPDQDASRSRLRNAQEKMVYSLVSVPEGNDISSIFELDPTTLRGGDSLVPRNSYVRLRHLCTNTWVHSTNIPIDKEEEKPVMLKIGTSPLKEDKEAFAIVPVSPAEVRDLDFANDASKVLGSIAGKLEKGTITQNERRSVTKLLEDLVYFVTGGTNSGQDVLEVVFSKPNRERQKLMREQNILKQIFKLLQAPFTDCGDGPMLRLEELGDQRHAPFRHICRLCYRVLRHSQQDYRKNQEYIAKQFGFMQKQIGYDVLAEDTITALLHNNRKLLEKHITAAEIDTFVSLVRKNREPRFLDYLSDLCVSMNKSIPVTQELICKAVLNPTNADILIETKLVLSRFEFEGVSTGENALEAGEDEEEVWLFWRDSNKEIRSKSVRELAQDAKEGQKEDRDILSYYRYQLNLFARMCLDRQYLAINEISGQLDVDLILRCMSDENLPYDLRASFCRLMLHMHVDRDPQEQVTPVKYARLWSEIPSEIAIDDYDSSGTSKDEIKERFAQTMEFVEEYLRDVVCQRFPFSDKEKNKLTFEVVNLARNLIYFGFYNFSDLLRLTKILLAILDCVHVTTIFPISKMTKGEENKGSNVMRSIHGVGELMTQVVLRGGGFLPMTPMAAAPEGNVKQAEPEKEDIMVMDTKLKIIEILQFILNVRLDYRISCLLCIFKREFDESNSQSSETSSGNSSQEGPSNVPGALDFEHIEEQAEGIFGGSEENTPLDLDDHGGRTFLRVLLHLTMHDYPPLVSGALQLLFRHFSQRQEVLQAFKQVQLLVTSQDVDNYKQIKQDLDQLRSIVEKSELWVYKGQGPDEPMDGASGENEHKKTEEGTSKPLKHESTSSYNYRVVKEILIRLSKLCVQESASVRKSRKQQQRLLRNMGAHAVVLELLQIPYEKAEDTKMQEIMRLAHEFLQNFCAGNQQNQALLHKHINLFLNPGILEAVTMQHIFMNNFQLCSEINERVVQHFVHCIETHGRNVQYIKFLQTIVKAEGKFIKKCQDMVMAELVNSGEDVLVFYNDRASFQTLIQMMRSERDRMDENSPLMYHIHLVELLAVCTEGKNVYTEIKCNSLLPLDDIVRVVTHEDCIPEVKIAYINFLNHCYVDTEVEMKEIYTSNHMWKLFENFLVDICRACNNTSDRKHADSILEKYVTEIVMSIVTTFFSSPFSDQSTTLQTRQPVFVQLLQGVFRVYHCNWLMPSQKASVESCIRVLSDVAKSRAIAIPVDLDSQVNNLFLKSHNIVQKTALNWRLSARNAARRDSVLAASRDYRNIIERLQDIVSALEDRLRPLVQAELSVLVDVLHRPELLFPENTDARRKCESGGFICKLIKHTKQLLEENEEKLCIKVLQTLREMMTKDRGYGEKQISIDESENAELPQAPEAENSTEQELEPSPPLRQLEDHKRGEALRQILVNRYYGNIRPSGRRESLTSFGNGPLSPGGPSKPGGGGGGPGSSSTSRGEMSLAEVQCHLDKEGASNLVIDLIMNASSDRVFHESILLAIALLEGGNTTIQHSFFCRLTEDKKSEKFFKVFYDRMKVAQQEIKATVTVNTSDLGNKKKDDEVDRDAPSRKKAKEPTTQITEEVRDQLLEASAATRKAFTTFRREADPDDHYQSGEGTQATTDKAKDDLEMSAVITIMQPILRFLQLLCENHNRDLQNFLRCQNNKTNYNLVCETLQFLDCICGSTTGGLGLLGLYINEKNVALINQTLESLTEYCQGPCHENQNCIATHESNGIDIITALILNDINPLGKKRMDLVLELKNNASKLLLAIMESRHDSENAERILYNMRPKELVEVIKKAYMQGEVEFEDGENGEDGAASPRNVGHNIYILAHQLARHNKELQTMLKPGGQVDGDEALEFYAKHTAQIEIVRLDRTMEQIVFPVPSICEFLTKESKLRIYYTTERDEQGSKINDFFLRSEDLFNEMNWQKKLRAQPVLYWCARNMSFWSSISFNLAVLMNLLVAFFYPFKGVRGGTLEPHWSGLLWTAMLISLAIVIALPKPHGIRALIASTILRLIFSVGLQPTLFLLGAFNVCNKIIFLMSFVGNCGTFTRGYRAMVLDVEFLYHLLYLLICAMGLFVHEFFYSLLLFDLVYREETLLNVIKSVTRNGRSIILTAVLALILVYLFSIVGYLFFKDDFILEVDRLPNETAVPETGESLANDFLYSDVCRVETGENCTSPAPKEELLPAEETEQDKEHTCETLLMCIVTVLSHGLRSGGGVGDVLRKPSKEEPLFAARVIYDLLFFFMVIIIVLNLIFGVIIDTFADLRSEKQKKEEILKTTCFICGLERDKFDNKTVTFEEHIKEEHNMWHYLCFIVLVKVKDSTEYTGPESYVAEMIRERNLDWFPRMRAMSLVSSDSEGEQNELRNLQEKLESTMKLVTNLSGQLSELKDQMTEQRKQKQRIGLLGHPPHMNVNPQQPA

Substance: 2-(dibiphenyl-4-ylboryloxy)ethanamine [P11]
- change of IP3R activity (100 µM): −29 ± 9%
- effect on IP3R (concentrations < 1 µM): devoid of any inhibitory activity; also recorded: without any effect
